Measured values published in paper PMC11123692, “Sugar-Based Surfactants: Effects of Structural Features on the Physicochemical Properties of Sugar Esters and Their Comparison to Commercial Octyl Glycosides” (Molecules, 2024).
Values after ≈ are worked out from the molar mass of the structure shown. Values joined by “and” are separate entries in the source; they are usually repeats but may differ in a detail not shown here. Equal values may be shown once. Read-outs that look alike come from different tables or passages of the source.

How the values were obtained:
[1] = cited from earlier work; for CMC / γcmc: Wilhelmy plate method at 25 °C
[2] = Equilibrium surface tension, Wilhelmy plate method (CMC, γcmc, Amin and derived quantities); format: physicochemical; settings: for Amin: from Gibbs adsorption equation
Method: CMCs are determined from the inflections in the plots of equilibrium surface tension against the logarithm of the concentration. For the interested reader, the Gibbs-free energy of micellization, ΔGmic, the Gibbs-free energy of adsorption, ΔGads, and the efficiency of surfactant adsorption pC20 were calculated based on their definitions, as presented in Table 2.
The surface activity reflects the amphiphiles’ adsorption behavior on the air–aqueous solution interface. The surface tension (γ) was obtained using the Wilhelmy plate method with a K100 Processor Tensiometer (KRUSS, Hamburg, Germany). Both the critical micellar concentration (CMC) and equilibrium surface tension at the CMC (γcmc) were derived from the typical plot of surface tension (γ) against the logarithm of concentration (Log C). The surface excess (Γmax) and minimal area per molecule at the air–aqueous solution interface (Amin) at different temperatures were calculated from the Gibbs adsorption equation [3, 46]:(2) Γmax=−1/2.303RT(dγ/dlogc) and (3) Amin=10^20/NAΓmax where R is the ideal gas constant, 8.31 J∙mol^−1∙K^−1; T is the measuring temperature, K; γ is the surface tension, N/m; c is the concentration, mol.L^−1; Amin is the minimal area per molecule, Å^2, and NA is Avogadro’s number, 6.022·10^23 mol^−1.
For each molecule, several solutions of a wide range of concentrations were prepared. Before measuring, each solution was finely homogenized with the help of a magnetic stirring bar. The stirring time was fixed at 30 min in all cases. […] Then, measurements were performed once for each concentration, at the solution preparation’s temperature, with an uncertainty of ±1 °C.

[3] = cited from earlier work
[4] = Water solubility limit by visual examination (transparent/turbid); format: physicochemical; settings: for solubility: thermodynamic from solid, read-out: Solubility Limit (S/mM)
Text: Water solubility reflects the ability of a particular molecule to dissolve and its interaction with water. To characterize the water solubility of most amphiphile molecules, especially the ionic surfactants, the Krafft point (Tk) is often used, referring to the critical temperature above which micelles form or the melting point of the hydrated solid surfactant. Two general approaches were used to measure the Tks of the molecules investigated herein: (1) a visual examination of the dissolution phenomenon for binary molecule/water systems, and (2) a quantitative measurement by using differential scanning calorimetry (DSC) analysis. The visual observation procedure is detailed below. […] Consequently, molecules can be classified into two major types: those soluble in water at RT and others insoluble at RT, with the solubility limit being called S (expressed in mM). The aspect of the sample, either transparent or turbid, is determined by direct visual examination. Tk determination with DSC is particularly applicable in the case of molecules insoluble at RT, for which a concentrated binary molecule/water mixture with a mass fraction of 20% of each molecule (C >> CMC in most cases) was prepared at 65 °C under stirring for 30 min to obtain a homogeneous system. These pre-homogenized aqueous systems were cooled and conserved in a refrigerator at 4 °C for a suitable period (>7 days), during which equilibrated hydrated crystals formed and precipitated. Then, for each molecule, about a 200–400 mg crystal sample was taken and put into the calorimeter cell. The first equilibrium phase was programmed at 4 °C for 1 h, followed by a slow heating stage from 4 °C to 65 °C at a rate of 0.5 °C/min. Tk was determined based on the location of the endothermic peak on the DSC curve, if any. All agitations were performed using a standard magnetic hotplate stirrer, MR 3001K (Heidolph Instruments, Schwabach, Germany). DSC curves were obtained from a commercial µDSC7 evo calorimeter (SETARAM Instrumentation, Caluire-et-Cuire, France). Tks are reported as the averages of at least two measurements as well as their standard deviations.

[5] = Precipitation on cooling previously heated 50 mM aqueous solutions; format: physicochemical; settings: 50 mM in water
Method: For commercial alkyl glucosides, the Tk decreases in the following sequence: C8αGlc > C8βGal >> C8βGlc ≈ C8αGal. […] The obtained Tk for C8αGlc is around 40 °C in accordance with previously published values. However, as determined by the same experimental protocol, the Tk for C8βGal is about 29 °C, much lower than 42 °C derived from the phase diagram reported by Sakya et al. A possible explanation is that Sakya et al. synthesized and purified C8βGal by themselves, whereas we carried our measurements on commercially purchased C8βGal. […] For this reason, we assume that many researchers have been able to investigate their aqueous solutions at 25 °C, as mentioned in the introduction. In addition, when cooling the previously heated solutions with the same molecular concentration of 50 mM, we noted that C8αGlc precipitated much faster than C8βGal. […] This may, to some extent, be explained by a more favorable crystal structure for C8αGlc than C8βGal. With regard to C8αGal, which is presented in commercial samples as a highly viscous liquid, we expect it to have the weakest crystal structure and a very low Tk value. However, our experimental methods cannot give its exact Tk. […]

[6] = set-up: method as in doi:10.1039/C4MD00122B; settings: ITC at 25 °C; cited from earlier work
[7] = Krafft temperature (Tk) by visual examination and DSC of molecule/water systems; format: physicochemical; settings: in water; observation and DSC; average ± SD of at least two measurements
Text: Water solubility reflects the ability of a particular molecule to dissolve and its interaction with water. To characterize the water solubility of most amphiphile molecules, especially the ionic surfactants, the Krafft point (Tk) is often used, referring to the critical temperature above which micelles form or the melting point of the hydrated solid surfactant. Two general approaches were used to measure the Tks of the molecules investigated herein: (1) a visual examination of the dissolution phenomenon for binary molecule/water systems, and (2) a quantitative measurement by using differential scanning calorimetry (DSC) analysis. The visual observation procedure is detailed below. We start with adding the molecule into 5–50 mL water, in a concentration range between 10^−2 mM and 10^3 mM (corresponding to a range of a surfactant mass concentration well below 20%), keeping the suspension under stirring for a certain time at room temperature (RT). Consequently, molecules can be classified into two major types: those soluble in water at RT and others insoluble at RT, with the solubility limit being called S (expressed in mM). The aspect of the sample, either transparent or turbid, is determined by direct visual examination. Tk determination with DSC is particularly applicable in the case of molecules insoluble at RT, for which a concentrated binary molecule/water mixture with a mass fraction of 20% of each molecule (C >> CMC in most cases) was prepared at 65 °C under stirring for 30 min to obtain a homogeneous system. These pre-homogenized aqueous systems were cooled and conserved in a refrigerator at 4 °C for a suitable period (>7 days), during which equilibrated hydrated crystals formed and precipitated. Then, for each molecule, about a 200–400 mg crystal sample was taken and put into the calorimeter cell. The first equilibrium phase was programmed at 4 °C for 1 h, followed by a slow heating stage from 4 °C to 65 °C at a rate of 0.5 °C/min. Tk was determined based on the location of the endothermic peak on the DSC curve, if any. All agitations were performed using a standard magnetic hotplate stirrer, MR 3001K (Heidolph Instruments, Schwabach, Germany). DSC curves were obtained from a commercial µDSC7 evo calorimeter (SETARAM Instrumentation, Caluire-et-Cuire, France). Tks are reported as the averages of at least two measurements as well as their standard deviations.

Row | SMILES | C20 ([2]; T = 25 °C) [mM] | pC20 ([2]; T = 25 °C) | ΔGads ([2]; T = 25 °C) [kcal/mol] | ΔGmic ([2]; T = 25 °C) [kcal/mol] | CMC ([2]; T = 25 °C (T > Tk)) | γcmc ([2]; T = 25 °C (T > Tk)) [mN/m] | Amin ([2]; T = 25 °C) [Å^2/molecule] | solubility ([4]; water, water, at RT) [mM] | CMC [1] [mM] | γcmc [1] [mN/m] | precipitation when cooling the previously heated solution [5] | CMC [6] [mM] | solubility ([4]; water, water, at T > Tk) [mM] | further results
1 | CCCCCCCCO[C@@H]1O[C@H](CO)[C@@H](O)[C@H](O)[C@H]1O [Molecule C8βGlc, octyl β-D-glucopyranoside, reference compound] | 2.7 | 2.6 | -6.4 | -4.1 | 21.2 mM and 21.2 ± 0.8 mM | 31.0 ± 0.15 | 38.5 ± 1.9 | > 100 | – | – | – | – | – | Amin ([1]; ref 23): 38 Å^2/molecule; Amin ([1]; ref 46): 42 Å^2/molecule; solubility relative to octyl-α-D-glucoside (C8αGlc) ([3]; ref 25): about seven times larger
2 | CCCCCCCCO[C@@H]1O[C@H](CO)[C@H](O)[C@H](O)[C@H]1O [Molecule C8βGal, octyl β-D-galactopyranoside, reference compound] | – | – | – | – | – | – | – | 10 to 20 (≈ 2.92 to 5.85 mg/mL) | 16 | 30.5 | no change was observed over one month | 31.7 ± 0.7 | > 100 | C20 ([2]; T = 40 °C): 3.2 mM; pC20 ([2]; T = 40 °C): 2.5; ΔGads ([2]; T = 40 °C): -7.1 kcal/mol; ΔGmic ([2]; T = 40 °C): -4.4 kcal/mol; CMC ([2]; T = 40 °C (T > Tk)): 20 mM and 20 ± 1 mM; γcmc ([2]; T = 40 °C (T > Tk)): 28.5 mN/m and 28.5 ± 0.5 mN/m; Amin ([2]; T = 40 °C): 46.3 ± 1.7 Å^2/molecule; Tk ([3]; derived from the phase diagram of Sakya et al.): 42 °C; aspect of solution ([4]; 20 mM in water at room temperature): nearly transparent
3 | CCCCCCCCO[C@H]1O[C@H](CO)[C@H](O)[C@H](O)[C@H]1O [Molecule C8αGal, Octyl α-D-galactopyranoside, reference compound] | 3.8 | 2.4 | -6.4 | -3.6 | 51.7 mM and 51.7 ± 1.5 mM | 29.5 ± 0.2 | 45.8 ± 0.9 | > 100 | – | – | – | 30.2 ± 0.4 | – | Tk (Krafft temperature) [7]: <4 °C
4 | CCCCCCCCO[C@H]1O[C@H](CO)[C@@H](O)[C@H](O)[C@H]1O [Molecule C8αGlc, Octyl α-D-glucopyranoside, reference compound] | – | – | – | – | – | – | – | – | 12 | 30.5 | within an hour | – | > 100 | C20 ([2]; T = 50 °C): 2.8 mM; pC20 ([2]; T = 50 °C): 2.6; ΔGads ([2]; T = 50 °C): -7.0 kcal/mol; ΔGmic ([2]; T = 50 °C): -4.7 kcal/mol; CMC ([2]; T = 50 °C (T > Tk)): 15.5 mM and 15.5 ± 0.5 mM; γcmc ([2]; T = 50 °C (T > Tk)): 30.7 mN/m and 30.7 ± 0.3 mN/m; Amin ([2]; T = 50 °C): 43 ± 1.8 Å^2/molecule; Solubility Limit (S/mM) ([4]; water, at RT): insoluble
